The values that follow come from paper doi:10.1101/706168v1 (biorxiv, 2019).

pIC50: −log10 of the molar value.

Common to all, as to assay: cell-based
Experiment [1] concerns the target T1, Kir3.1/3.4 (Homo sapiens, UniProt P48544+P48549).
T1 sequence (P48544 1-419): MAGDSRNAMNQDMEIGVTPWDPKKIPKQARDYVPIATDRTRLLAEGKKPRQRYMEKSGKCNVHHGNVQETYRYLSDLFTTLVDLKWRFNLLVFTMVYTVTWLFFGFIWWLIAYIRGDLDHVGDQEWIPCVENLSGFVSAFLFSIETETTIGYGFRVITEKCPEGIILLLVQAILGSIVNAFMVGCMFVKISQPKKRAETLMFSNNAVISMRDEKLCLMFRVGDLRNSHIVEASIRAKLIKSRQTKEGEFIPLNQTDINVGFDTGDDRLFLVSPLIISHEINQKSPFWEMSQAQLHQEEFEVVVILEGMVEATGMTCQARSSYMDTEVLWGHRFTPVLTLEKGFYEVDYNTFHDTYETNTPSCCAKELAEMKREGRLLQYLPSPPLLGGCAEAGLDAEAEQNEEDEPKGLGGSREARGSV
T1 sequence (P48549 1-501): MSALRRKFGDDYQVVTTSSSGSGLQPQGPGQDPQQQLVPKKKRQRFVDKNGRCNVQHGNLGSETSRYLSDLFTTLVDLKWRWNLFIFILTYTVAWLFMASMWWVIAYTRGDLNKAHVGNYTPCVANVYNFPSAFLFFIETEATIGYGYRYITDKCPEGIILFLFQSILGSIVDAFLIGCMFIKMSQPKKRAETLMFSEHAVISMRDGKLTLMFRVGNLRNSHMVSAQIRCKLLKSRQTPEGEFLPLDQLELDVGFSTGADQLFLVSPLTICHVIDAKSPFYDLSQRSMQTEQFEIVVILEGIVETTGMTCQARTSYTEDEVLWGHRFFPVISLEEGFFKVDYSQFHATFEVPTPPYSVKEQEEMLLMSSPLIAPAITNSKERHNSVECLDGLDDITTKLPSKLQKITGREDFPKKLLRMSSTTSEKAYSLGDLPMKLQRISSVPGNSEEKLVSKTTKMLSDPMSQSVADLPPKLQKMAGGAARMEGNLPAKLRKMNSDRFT

For experiment [2], the target named is T2, HCN4 (Homo sapiens, UniProt Q9Y3Q4).
T2 sequence (Q9Y3Q4 1-1203): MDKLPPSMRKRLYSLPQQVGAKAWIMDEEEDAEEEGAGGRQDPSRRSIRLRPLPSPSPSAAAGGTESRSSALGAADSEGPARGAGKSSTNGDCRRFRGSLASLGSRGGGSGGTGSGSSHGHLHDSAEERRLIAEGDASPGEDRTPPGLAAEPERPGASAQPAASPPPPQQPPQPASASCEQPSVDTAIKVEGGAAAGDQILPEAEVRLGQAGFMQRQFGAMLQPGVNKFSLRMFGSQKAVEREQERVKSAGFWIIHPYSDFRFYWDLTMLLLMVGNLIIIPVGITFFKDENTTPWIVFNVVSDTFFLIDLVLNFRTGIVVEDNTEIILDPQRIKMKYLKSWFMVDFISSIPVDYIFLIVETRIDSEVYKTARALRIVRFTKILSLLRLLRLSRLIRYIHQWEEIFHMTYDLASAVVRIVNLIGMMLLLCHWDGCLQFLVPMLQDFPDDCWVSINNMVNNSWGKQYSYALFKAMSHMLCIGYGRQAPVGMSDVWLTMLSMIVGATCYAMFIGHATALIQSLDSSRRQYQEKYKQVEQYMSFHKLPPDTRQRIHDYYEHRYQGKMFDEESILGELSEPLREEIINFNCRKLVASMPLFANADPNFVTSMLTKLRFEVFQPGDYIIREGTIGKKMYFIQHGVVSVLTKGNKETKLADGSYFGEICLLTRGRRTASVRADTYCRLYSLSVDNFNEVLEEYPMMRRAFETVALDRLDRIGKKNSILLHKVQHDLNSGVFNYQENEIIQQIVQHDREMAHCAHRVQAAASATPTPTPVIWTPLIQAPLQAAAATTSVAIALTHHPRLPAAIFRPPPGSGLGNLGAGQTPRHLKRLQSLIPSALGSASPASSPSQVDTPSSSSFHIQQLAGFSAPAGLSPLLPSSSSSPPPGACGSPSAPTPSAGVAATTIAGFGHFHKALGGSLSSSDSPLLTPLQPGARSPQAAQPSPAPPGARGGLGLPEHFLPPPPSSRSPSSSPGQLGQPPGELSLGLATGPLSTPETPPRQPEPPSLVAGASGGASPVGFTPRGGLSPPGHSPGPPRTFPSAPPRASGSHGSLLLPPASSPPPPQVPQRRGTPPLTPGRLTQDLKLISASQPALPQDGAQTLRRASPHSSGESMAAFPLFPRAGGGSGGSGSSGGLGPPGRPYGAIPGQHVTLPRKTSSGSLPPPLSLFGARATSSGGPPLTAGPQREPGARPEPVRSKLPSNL

The target in experiment [3] is T3, Kv4.3 (Homo sapiens, UniProt Q9UK17).
T3 sequence (Q9UK17 1-655): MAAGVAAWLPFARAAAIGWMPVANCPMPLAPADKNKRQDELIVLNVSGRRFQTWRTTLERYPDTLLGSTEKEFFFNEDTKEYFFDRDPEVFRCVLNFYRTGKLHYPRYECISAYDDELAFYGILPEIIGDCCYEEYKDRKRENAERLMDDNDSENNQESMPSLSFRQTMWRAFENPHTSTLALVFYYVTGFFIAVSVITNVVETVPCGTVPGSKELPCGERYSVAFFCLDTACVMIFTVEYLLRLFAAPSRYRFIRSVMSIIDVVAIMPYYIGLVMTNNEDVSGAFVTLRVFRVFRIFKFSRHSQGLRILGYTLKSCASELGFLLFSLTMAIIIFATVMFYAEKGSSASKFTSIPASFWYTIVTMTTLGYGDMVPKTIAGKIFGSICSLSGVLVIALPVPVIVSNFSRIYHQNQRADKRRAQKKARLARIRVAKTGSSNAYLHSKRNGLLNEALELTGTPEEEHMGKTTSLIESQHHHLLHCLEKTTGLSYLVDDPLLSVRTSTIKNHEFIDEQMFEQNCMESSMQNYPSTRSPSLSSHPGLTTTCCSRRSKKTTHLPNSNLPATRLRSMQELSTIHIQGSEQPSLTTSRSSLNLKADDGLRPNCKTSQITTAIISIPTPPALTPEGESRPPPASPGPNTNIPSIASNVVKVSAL

Regarding `O=C(c1ccccc1F)N1CCN(Cc2c(-c3ccc(Br)cc3)nc3ccccn23)CC1` [BAY 1000493, (4-{[2-(4-bromophenyl)imidazo[1,2-a]pyridin-3-yl]methyl}vpiperazin-1-yl)(2-fluorophenyl)methanone], the negative logarithm of the IC50 (pIC50) (commonly the IC50 on a negative log10 scale, so that one unit is a factor of ten) in experiment [1] was < 4.52; in experiment [2] it was < 4.52; in experiment [3] it was < 5.00.
